We go through one compound from patent publication US20060269482A1 (priority 2005, published 2006).

For data set [1], the system named is MTLn3 cells. Briefly: cell growth inhibition in rat tumor cell line. It is filed as cell-based.
For data set [2], the system named is retinoblastoma protein (Rb) phosphorylation in HCT116 cells. Briefly: Rb phosphorylation in HCT116 cells by Western blot and ELISA. The class given is cell-based, human. The conditions noted are these: HCT116, 20 hours, 0.1, 0.2 and 0.6 μM. The procedure: Cells were washed 3 times with cold PBS on ice and scraped from the flasks. All cells were collected in 15 ml tubes. Cells were pelleted by centrifugation and lysis buffer was added (1:1 PBS: 2× Tris-Glycine SDS Sample Buffer (Invitrogen, Carlsbad, Calif.) containing 5% 2-β mercaptoethanol). The volume of lysis buffer used was 5 ul per 1×10^6 cells. Samples were sonicated for 30 seconds on ice. Following sonication, samples were clarified by centrifugation at 16,000×g for 10 minutes at 4° C. and protein concentrations were determined using Non-Interfering Protein Assay Kit (Geno Technology Incorporated, Maplewood, Mo.). Proteins were denatured by boiling for 5 minutes and centrifuged as described above. […] For Western blotting, total Rb was detected using antibody from Pharmingen (BD Bioscience, San Diego, Calif.) at a dilution of 1:2000. The phosphorylation status of Rb at serine 780, serine 795 and serine 807/811 was detected with phosphospecific antibodies at dilutions of 1:1000 (Cell Signaling Technology, Beverly, Mass.). […]
HCT116 cells were treated for 20 hours at the IC50 (0.1 μM), IC90 (0.2 μM) and 3×IC90 (0.6 μM) concentrations for cell growth inhibition, as determined in a 5-day proliferation assay. Lysates were analyzed by Western blotting for Rb phosphorylation at serine 795 and serine 780 (FIG. 1). […]

Data set [3] relates to retinoblastoma protein (Rb) phosphorylation in MTLn3 cells. Nature of the data set: Rb phosphorylation in MTLn3 cells by Western blot. The conditions noted are these: MTLn3, 20 hours, 0.17, 0.24 and 0.72 μM. It is filed as cell-based, rat. How it is done: Cells were washed 3 times with cold PBS on ice and scraped from the flasks. All cells were collected in 15 ml tubes. Cells were pelleted by centrifugation and lysis buffer was added (1:1 PBS: 2× Tris-Glycine SDS Sample Buffer (Invitrogen, Carlsbad, Calif.) containing 5% 2-β mercaptoethanol). The volume of lysis buffer used was 5 ul per 1×10^6 cells. Samples were sonicated for 30 seconds on ice. Following sonication, samples were clarified by centrifugation at 16,000×g for 10 minutes at 4° C. and protein concentrations were determined using Non-Interfering Protein Assay Kit (Geno Technology Incorporated, Maplewood, Mo.). Proteins were denatured by boiling for 5 minutes and centrifuged as described above. […] For Western blotting, total Rb was detected using antibody from Pharmingen (BD Bioscience, San Diego, Calif.) at a dilution of 1:2000. The phosphorylation status of Rb at serine 780, serine 795 and serine 807/811 was detected with phosphospecific antibodies at dilutions of 1:1000 (Cell Signaling Technology, Beverly, Mass.).
Lysates were analyzed by Western blotting for Rb phosphorylation using polyclonal antibodies prepared against a peptide corresponding to sequences surrounding phosphorylated serine 807/811 in human Rb (FIG. 3).
(In general: In western blotting, separated proteins are transferred to a membrane and probed.)

Data set [4] in a line: Plasma and tumor exposures after a single oral dose. The class given is in vivo, rat. The procedure: Female Fischer rats obtained from Charles River Laboratories were used when they were ˜13-15 weeks old and weighed ˜150 grams. All animals were examined prior to the initiation of studies to ensure that they were healthy and acclimated to the laboratory environment. Autoclaved water and irradiated food were provided ad libitum, and the animals were maintained in a 12 hour light and dark cycle.
The test compound COMPOUND A, [4-amino-2-(1-methanesulfonylpiperidin-4-ylamino) pyrimidin-5-yl]-(2,3-difluoro-6-methoxyphenyl)methanone, was synthesized by Discovery Chemistry, Hoffmann-La Roche Inc. COMPOUND A was formulated as a suspension in 1% Klucel LF with 0.1% Tween 80 for oral injection. Compound was stored at 4° C. and vortexed immediately prior to administration.
The dose selected was 80 mg/kg, determined to be an efficacious dose in this animal model. Tumor growth inhibition in the MTLn3 xenograft model after 2 to 3 weeks of oral dosing at 80 mg/kg once weekly averaged 90% with 2/10 complete regressions. COMPOUND A was dosed on day 10 post implantation of cells, at which time the tumors were 100-200 mm^3 in size. In this pharmacokinetic/pharmacodynamic experiment, plasma and tumors were collected at 1, 2, 6, 24 and 72 hours post dosing of a single oral dose of COMPOUND A. Tumors were removed and immediately snap frozen in liquid nitrogen and stored at −80° C. until drug concentration analysis. Untreated and vehicle treated control groups were included in the analysis. Concentrations of COMPOUND A in plasma and tumors were determined in the same three animals per time point. Whole blood was also collected for analysis of Rb phosphorylation. Peripheral blood mononuclear cells (PBMCs) were isolated, stimulated ex vivo with mitogen and analyzed by Western blot as described below.
In a second pharmacodynamic study, plasma concentrations of COMPOUND A were similarly analyzed as described above, and Rb phosphorylation in both PBMCs and tumor xenografts treated with a single oral dose of COMPOUND A was examined.
After a single oral dose of 80 mg/kg, plasma and tumor tissues show a similar concentration time profile of COMPOUND A. Maximum concentrations in both plasma and tumor tissue were observed 1 hr post dose. The concentrations in the tumor samples taken from the same animals were approximately 50% of the plasma concentration and at 24 hrs tumor drug levels (164±28 ng/g) approximated plasma exposures at 24 hours (250±74 ng/ml) (FIG. 7). Drug levels in plasma and tumor tissue were measurable up to 24 hrs after dosing in all the animals in PD 664 (3 rats per time point). […] Overall the plasma data seem fairly predictive for tumor concentrations particularly since the extraction of drug from the tumor samples might be less than complete. No drug was detectable in the vehicle group.
Similarly in PD 675, after a single 80 mg/kg oral dose of COMPOUND A, drug was measurable in all the animals up to 6 hrs (339±88 ng/ml) and in ⅔ animals 24 hr and 48 hr after dosing. Mean plasma concentrations were steady from 1-24 hr. No drug was detectable in the vehicle group.

Where [5] appears, read: single oral dose 80 mg/kg, rat, PD 664.

SMILES strings stand for the structures. Read-outs that look alike come from different tables or passages of the source.

For `COc1ccc(F)c(F)c1C(=O)c1cnc(NC2CCN(S(C)(=O)=O)CC2)nc1N` [COMPOUND A, [4-amino-2-(1-methanesulfonylpiperidin-4-ylamino)pyrimidin-5-yl]-(2,3-difluoro-6-methoxyphenyl)methanone], in data set [1], the IC50 – broadly, the concentration that gives 50% inhibition – came to 170 nM and the 90% effect level (IC90) was put at 240 nM. For the same compound, the “Rb phosphorylation at serine 795, serine 780 (Western blot) and threonine 821 (ELISA)” value in data set [2] is on record as “inhibition of phosphorylation at all three CDK phosphorylation sites in a concentration-dependent fashion”. Further, the “Rb phosphorylation at epitope recognized by anti-phospho-serine 807/811 antibody” value in data set [3] is reported as “inhibition of phosphorylation”. In addition, the concentration at 6 h in data set [4] (female, Fischer, rat, plasma, single 80 mg/kg oral dose, PD 675, 6 hrs) amounted to 339 ± 88 ng/mL. Also, the concentration at 24 h in data set [4] (female, Fischer, rat, plasma, single oral dose 80 mg/kg, 24 hours, PD 664, read-out: Plasma exposure at 24 hours) came out at 250 ± 74 ng/mL. This compound came in with a concentration at 72 h in data set [4] (female, Fischer, rat, plasma, single oral dose 80 mg/kg, PD 664, one out of three animals measurable) of no less than 12.5 ng/mL. The Kp in data set [4] (female, Fischer, rat, tumor / plasma, single oral dose 80 mg/kg, same animals, PD 664, read-out: Tumor concentration as percent of plasma concentration) was roughly 0.5. In data set [4] (female, Fischer, rat, tumor, single oral dose 80 mg/kg, 24 hrs, PD 664, read-out: Tumor drug level at 24 hrs), the concentration at 24 h worked out at 164 ± 28 ng/g. Besides, the “Time up to which drug levels in plasma and tumor tissue were measurable in all animals” value in data set [4] (single oral dose 80 mg/kg, PD 664, 3 rats per time point) is given as “up to 24 hrs”. In addition, in data set [4] (setting [5]), the “Time of maximum concentration in plasma” value worked out at 1 h and the “Time of maximum concentration in tumor tissue” value turned out to be 1 h.
